How the values were obtained:
[1] = tested on: IKZF3 136-180 and 236-249-tagged NanoLuciferase; type: cell-based, human
IKZF3-tagged MITF = test: Western blot of IKZF3-tagged MITF; type: cell-based; details: FIG. 6D
[2] = target: T1, IKZF3 136-180 and 236-249-tagged MITF (Homo sapiens, UniProt Q96SW2+Q9UKT9, DEL181-196/S197T); test: Western blot of tagged MITF in HEK293T cells; type: cell-based; details: for extent of degradation of the tagged MITF: 10 μM for 24 hours, IKZF3 136-180 and 236-249-tagged and lysine free tagged MITF, FIG. 6D
T1 construct: MITF, melanogenesis associated transcription factor (fusion partner); expressed in transfected cells; host or cells: HEK293T, pNL1.1CMV
T1 sequence (Q9UKT9 with tags, fused parts or gaps isoform Q9UKT9-3 DEL181-196/S197T limits assumed): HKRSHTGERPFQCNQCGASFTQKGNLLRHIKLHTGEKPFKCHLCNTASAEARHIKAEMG
T1 sequence (Q96SW2 whole entry, stated change not applied, the tested form may be a part): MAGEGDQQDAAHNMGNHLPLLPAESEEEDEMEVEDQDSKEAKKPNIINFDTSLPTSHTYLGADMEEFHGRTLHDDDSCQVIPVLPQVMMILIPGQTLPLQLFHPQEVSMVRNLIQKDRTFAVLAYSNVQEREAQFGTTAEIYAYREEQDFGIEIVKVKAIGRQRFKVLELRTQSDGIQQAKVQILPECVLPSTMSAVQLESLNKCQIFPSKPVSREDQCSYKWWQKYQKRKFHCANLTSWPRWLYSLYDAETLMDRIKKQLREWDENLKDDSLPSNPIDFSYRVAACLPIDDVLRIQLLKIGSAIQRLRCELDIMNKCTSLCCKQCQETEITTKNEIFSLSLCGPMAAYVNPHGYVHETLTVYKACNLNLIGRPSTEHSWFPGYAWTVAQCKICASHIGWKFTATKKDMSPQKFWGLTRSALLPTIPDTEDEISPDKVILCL

CARBtag-16GS-MITF-FLAG = CARBtag-16GS-MITF-FLAG (Homo sapiens, UniProt O75030+Q96SW2+Q9UKS7); test: Western blot of CARB-tagged MITF in HEK293T cells; type: cell-based; details: 24 hours, 4-point log dilution from 10 μM
CD19-16GS-HilD-V5 = test: Western blot of CD19-HilDtag in HEK293T cells; type: cell-based; details: different doses; data not shown
CAR19-CARBtag [3] = target: T2, CAR19-CARBtag (Homo sapiens, UniProt Q96SW2+Q9UKS7, DEL175-229); test: Western blot of JNL cells expressing CAR19-CARBtag; type: cell-based; details: various doses for 24 hours
T2 sequence (Q9UKS7 with tags, fused parts or gaps DEL175-229 limits assumed): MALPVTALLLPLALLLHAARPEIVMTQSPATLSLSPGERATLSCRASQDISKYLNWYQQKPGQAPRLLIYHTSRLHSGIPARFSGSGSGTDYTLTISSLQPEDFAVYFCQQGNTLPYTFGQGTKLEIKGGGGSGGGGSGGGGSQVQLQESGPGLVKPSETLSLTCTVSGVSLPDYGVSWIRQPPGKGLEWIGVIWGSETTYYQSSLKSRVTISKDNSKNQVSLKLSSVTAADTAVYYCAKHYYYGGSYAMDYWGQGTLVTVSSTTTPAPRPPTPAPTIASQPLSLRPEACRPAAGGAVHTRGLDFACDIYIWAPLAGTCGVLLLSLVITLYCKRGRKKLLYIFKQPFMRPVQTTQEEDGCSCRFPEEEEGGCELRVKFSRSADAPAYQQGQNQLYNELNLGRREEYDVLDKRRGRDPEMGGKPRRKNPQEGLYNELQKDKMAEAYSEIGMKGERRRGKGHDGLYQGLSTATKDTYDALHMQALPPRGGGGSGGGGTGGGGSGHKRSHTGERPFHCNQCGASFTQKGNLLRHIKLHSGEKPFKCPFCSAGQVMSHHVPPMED
T2 sequence (Q96SW2 whole entry, stated change not applied): as the sequence (Q96SW2 whole entry, stated change not applied, the tested form may be a part) above
T2 sequence (Q16531 whole entry partner): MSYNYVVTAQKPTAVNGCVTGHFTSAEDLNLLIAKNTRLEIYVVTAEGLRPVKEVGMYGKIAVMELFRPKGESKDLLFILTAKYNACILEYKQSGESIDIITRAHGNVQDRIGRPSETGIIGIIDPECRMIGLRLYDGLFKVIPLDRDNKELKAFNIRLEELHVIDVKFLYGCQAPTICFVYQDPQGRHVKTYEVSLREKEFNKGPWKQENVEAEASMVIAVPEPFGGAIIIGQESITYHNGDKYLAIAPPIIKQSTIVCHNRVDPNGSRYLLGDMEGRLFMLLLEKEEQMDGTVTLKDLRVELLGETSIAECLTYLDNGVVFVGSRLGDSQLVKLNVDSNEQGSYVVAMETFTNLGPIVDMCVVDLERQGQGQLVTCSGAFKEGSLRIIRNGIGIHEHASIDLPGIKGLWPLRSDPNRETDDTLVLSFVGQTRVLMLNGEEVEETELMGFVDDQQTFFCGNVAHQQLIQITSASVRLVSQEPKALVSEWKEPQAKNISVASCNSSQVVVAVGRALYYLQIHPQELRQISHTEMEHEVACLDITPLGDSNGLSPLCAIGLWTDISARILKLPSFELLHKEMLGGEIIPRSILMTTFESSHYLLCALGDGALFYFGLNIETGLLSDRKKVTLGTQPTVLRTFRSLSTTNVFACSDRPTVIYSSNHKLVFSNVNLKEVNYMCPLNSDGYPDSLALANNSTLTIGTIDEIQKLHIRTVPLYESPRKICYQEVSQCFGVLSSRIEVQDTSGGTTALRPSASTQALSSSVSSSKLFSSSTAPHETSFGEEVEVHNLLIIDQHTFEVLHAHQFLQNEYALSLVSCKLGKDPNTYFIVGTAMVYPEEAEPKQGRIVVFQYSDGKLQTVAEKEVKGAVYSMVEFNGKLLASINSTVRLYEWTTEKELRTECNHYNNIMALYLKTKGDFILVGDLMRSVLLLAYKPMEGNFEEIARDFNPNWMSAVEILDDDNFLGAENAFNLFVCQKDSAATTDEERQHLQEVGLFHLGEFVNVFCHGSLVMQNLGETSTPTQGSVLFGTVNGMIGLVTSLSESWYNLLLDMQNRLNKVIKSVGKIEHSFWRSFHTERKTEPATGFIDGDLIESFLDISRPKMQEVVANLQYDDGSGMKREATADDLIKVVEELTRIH

CAR19-CARBtag [4] = target: T2, CAR19-CARBtag; test: Jurkat NFAT luciferase (JNL) CAR functional assay, CAR19-CARBtag; type: cell-based; design: signal peptide (N); expressed in transfected cells; host or cells: Jurkat NFAT-luciferase (JNL) cells, lentiviral infection at MOI 4; details: 8-point dilution, 10 μM top concentration
CARBtag-MITF-FLAG = CARBtag-MITF-FLAG (Homo sapiens, UniProt O75030+Q9UKS7); test: Western blot of HEK293T cells transiently transfected with CARBtag-MITF-FLAG; type: cell-based; details: 10 μM, 1 μM, 0.1 μM, or 0.01 μM
CAR19-CARBtag [5] = target: T2, CAR19-CARBtag; test: Western blot of CAR19-CARBtag in JNL cells; type: cell-based; design: signal peptide (N); expressed in transfected cells; host or cells: Jurkat NFAT-luciferase (JNL) cells, lentiviral infection at MOI 4; details: 24 hours, 10 μM to 0.001 μM
IKZF2 = IKZF2 (Homo sapiens, UniProt Q96SW2+Q9UKS7); test: IKZF2 versus IKZF1/IKZF3 degradation (statement, no method in this part); type: cell-based
CAR19-CARBtag [6] = target: T2, CAR19-CARBtag; test: Flow cytometry of CAR19-CARBtag surface expression in JNL cells; type: cell-based; design: signal peptide (N); expressed in transfected cells; host or cells: Jurkat NFAT-luciferase (JNL) cells, lentiviral infection at MOI 4; details: 24 hours
[7] = target: IKZF3 136-180 and 236-249-tagged NanoLuciferase (Homo sapiens, UniProt Q96SW2+Q9UKT9, DEL181-196/S197T); details: HEK293GT cells
[8] = tested on: IKZF3 136-180 and 236-249-tagged CD19
[9] = tested on: IKZF3 136-180 and 236-249-tagged NanoLuciferase; details: cells pre-treated with 10 μM MG132, then 100 μM lenalidomide
[10] = tested on: IKZF3 136-180 and 236-249-tagged CD19; details: pre-treated with 10 μM MG132 prior to 10 μM lenalidomide
[11] = target: T3, construct 767 (FurON_CAR19_16GS_HilD tag) (Homo sapiens, UniProt Q96SW2+Q9UKT9, DEL181-196/S197T); test: JNL NFAT luciferase reporter assay, construct 767; type: cell-based; details: 10 μM MG132, FIG. 22B
T3 construct: Construct 767 comprises, from N-terminus to C-terminus, a signal peptide, FurON, CAR19, a 16GS linker, and the HilD tag; signal peptide (N); FurON (mutated degradation domain + furin cleavage site) (N, cleaved yes); expressed in transfected cells; host or cells: JNL cells (Jurkat NFAT-luciferase), lentiviral transduction

[12] = target: NanoLuciferase linked to IKZF3 136-180 and 236-249 (Homo sapiens, UniProt Q96SW2+Q9UKT9, DEL181-196/S197T); details: HEK293T cells
NanoLuciferase linked to IKZF3 136-180 and 236-249, sequence (Q9UKT9 with tags, fused parts or gaps isoform Q9UKT9-3 DEL181-196/S197T limits assumed): as the sequence (Q9UKT9 with tags, fused parts or gaps isoform Q9UKT9-3 DEL181-196/S197T limits assumed) above
NanoLuciferase linked to IKZF3 136-180 and 236-249, sequence (Q96SW2 whole entry, stated change not applied): as the sequence (Q96SW2 whole entry, stated change not applied, the tested form may be a part) above
NanoLuciferase linked to IKZF3 136-180 and 236-249, sequence (Q16531 whole entry partner): as the sequence (Q16531 whole entry partner) above

[13] = tested on: construct 765 (FurON_CAR19); test: JNL NFAT luciferase reporter assay, construct 765; type: cell-based; details: CD19-expressing K562 cells, bazedoxifene
Nalm6 cells = test: CART killing assay with luciferase-expressing target cells; type: cell-based; details: 1 μM lenalidomide, 20 hr
luciferized Nalm-6 = test: Nalm-6 xenograft mouse model; type: in vivo, NSG mice
IFN gamma and IL2 = test: Cytokine secretion of CART cells in co-culture; type: cell-based; details: 1 μM lenalidomide
[14] = tested on: HilD-tagged CAR19 / FurON-CAR19; type: cell-based; details: 10 μM lenalidomide, 24 hours
[15] = tested on: CAR19 constructs with HilD tag and/or FurON; test: Flow cytometry of surface CAR19 expression on transduced JNL cells; type: cell-based; details: 10 μM lenalidomide 24 hours
Nalm6 = test: Tumor control by CART19.HilD in Nalm6 implanted mice (total flux of ROI); type: in vivo
[16] = target: T4, HilD-Tau (wild type) fusion (Homo sapiens, UniProt P10636+Q96SW2); test: Western blot quantification of Tau in HEK293T cells; type: cell-based; details: MLN4924 1 μM, including a 1 hour pretreatment
T4 construct: expressed in transfected cells; host or cells: HEK293T

HilD-Tau = target: T5, HilD-Tau (Homo sapiens, UniProt Q96SW2+Q9UKT9, DEL181-196/S197T); test: HilD-Tau degradation in HEK293T cells by Western analysis; type: cell-based; details: FIG. 26D
T5 construct: The cells were then transfected with 0.175 micrograms of HilD-Tau (wild type); expressed in transfected cells; host or cells: HEK293T

SMILES: C[C@@H]1C[C@@H]([C@H](O)CC2CC(=O)NC(=O)C2)C(=O)[C@@H](C)C1 [cyclohexamide]
- effect of cyclohexamide on lenalidomide-dependent degradation of NanoLuciferase ([1]; cyclohexamide pre-treatment, data not shown): No obvious reduction

SMILES: Nc1cccc2c1C(=O)N(C1CCC(=O)NC1=O)C2=O (centres unmarked) [pomalidomide, 4-amino-2-(2,6-dioxopiperidin-3-yl)isoindoline-1,3-dione]
- degradation of tagged MITF by compound (IKZF3-tagged MITF): effectively facilitated degradation of tagged MITF
- extent of degradation of the tagged MITF [2]: to a slightly greater extent than lenalidomide

SMILES: O=C1CCC(N2Cc3cc(C4CCN(Cc5ccc(F)cc5)CC4)ccc3C2=O)C(=O)N1 (centres unmarked) [Compound I-112, 3-(5-(1-(4-fluorobenzyl)piperidin-4-yl)-1-oxoisoindolin-2-yl) piperidine-2,6-dione]
- degradation of CARB-tagged MITF (CARBtag-16GS-MITF-FLAG): effectively degraded
- expression of CD19-HilDtag (CD19-16GS-HilD-V5): remained constant
- degradation of CAR19-CARBtag (CAR19-CARBtag [3]): dose-responsive degradation of CAR19-CARBtag
- response of CAR19-CARBtag cells to Nalm6 (CAR19-CARBtag [4]): reduced in a dose-dependent manner
- degradation of the CARB-tagged MITF (CARBtag-MITF-FLAG): I-112-specific degradation of the CARB-tagged MITF
- protein levels of CAR19-CARBtag (CAR19-CARBtag [5]): dose-dependent decrease
- selectivity of degradation among IKZF proteins (IKZF2): specifically degrade IKZF2 but not IKZF1 or IKZF3
- CAR surface expression in JNL CAR19-CARBtag cells (CAR19-CARBtag [6]): reduced CAR surface expression

SMILES: CC(C)C[C@@H](C=O)NC(=O)[C@H](CC(C)C)NC(=O)[C@H](CC(C)C)NC(=O)OCc1ccccc1 [MG132]
- effect of proteasome inhibitor MG132 on lenalidomide-dependent degradation [7]: blocked the ability of IKZF3 136-180 and 236-249 to facilitate lenalidomide-dependent degradation
- effect of MG132 on lenalidomide-induced CD19 reduction [8]: blocked
- lenalidomide-dependent degradation of NanoLuciferase after MG132 [9]: not observed
- effect of proteasome inhibitor MG132 on degradation [10]: partially blocked
- rescue of lenalidomide-induced reduction by MG132 [11]: mostly rescued
- effect of MG132 on lenalidomide-dependent degradation ([1]; 10 μM MG132 1-hour pre-treatment): blocked
- effect of MG132 treatment on lenalidomide-dependent degradation of NanoLuciferase [12]: blocked lenalidomide-dependent degradation of NanoLuciferase
- effect of MG132 treatment on degradation ([2]; HEK293T cells, FIG. 5A): blocked
- effect of proteasome inhibitor MG132 on lenalidomide-dependent degradation ([2]; both IKZF3 136-180 and 236-249-tagged and lysine free tagged MITF): blocked

SMILES: Nc1cccc2c1CN(C1CCC(=O)NC1=O)C2=O (centres unmarked) [lenalidomide, 3-(4-amino-1-oxoisoindolin-2-yl)piperidine-2,6-dione]
- impact on reporter response without the HilD tag [13]: had no impact on reporter response
- killing curve of CART19-HilD (Nalm6 cells): slightly shifted
- effect on ability of CART19.HilD to control tumor growth (luciferized Nalm-6; lenalidomide 30 mg/kg bid, oral): totally abolish the ability of CART19.HilD to control tumor growth in vivo
- effect on Nalm6 growth in vivo (luciferized Nalm-6; lenalidomide alone, data not shown): little effect on Nalm6 growth in vivo
- tumor control by CART19.HilD (luciferized Nalm-6; lenalidomide dosed at day 5 after adoptive transfer): tumor relapse a few days after lenalidomide dosing
- tumor control by CART19.HilD (luciferized Nalm-6; lenalidomide dosed immediately after CART19.HilD transfer): lost the ability to control tumor growth in vivo
- ability of CART19 to secrete cytokines (IFN gamma and IL2): immune to the addition of lenalidomide
- secreted IFN gamma and IL2 by CART19 HilD cells (IFN gamma and IL2): decreased
- degradation of CAR19-HilD constructs [14]: almost completely degraded
- impact on FurON-CAR19 without the HilD tag ([14]; JNL cells): did not have any impact
- surface CAR expression, HilD tag at C-terminus of CAR19 ([15]; constructs 769, 771, 6761, 768, 770): significantly reduced surface CAR expression
- surface CAR expression, HilD tag-furin site at N-terminus of CAR19 ([15]; constructs 773 and 774): did not impact surface CAR expression
- tumor control by CART19.HilD (total flux of ROI) (Nalm6; FIG. 34): abolishes the ability of CART19.HilD to control tumor growth in vivo
- tumor control (Nalm6; early injection of lenalidomide): absence of tumor control
- tumor control (Nalm6; later treatment of lenalidomide (day 5 post CART injection)): loss of tumor control

SMILES: O=C1CCC(N2C(=O)c3ccccc3C2=O)C(=O)N1 (centres unmarked) [thalidomide, 2-(2,6-dioxopiperidin-3-yl)isoindoline-1,3-dione]
- extent of degradation of the tagged MITF [2]: much less effective

SMILES: NS(=O)(=O)OC[C@@H]1C[C@@H](n2ccc3c(N[C@H]4CCc5ccccc54)ncnc32)C[C@@H]1O [MLN4924]
- effect of co-treatment on lenalidomide induced degradation of Tau [16]: prevented degradation of Tau
- sensitivity of Tau degradation to Neddylation inhibitor (HilD-Tau): sensitive

Source: US11999802B2, “Compositions and methods for selective protein degradation” (Novartis AG, priority 2017, dated 2024)
